According to ChEMBL document CHEMBL3272104, “Inhibition of Lactobacillus casei thymidylate synthetase by 5-substituted 2'-deoxyuridylates. Preliminary quantitative structure-activity relationship” (J Med Chem, 1977):
Values belong to the molecule of their own block, whether it stands above or below them.

Tests used:
Thymidylate synthase [1] = biological target: T1, Thymidylate synthase (Lactobacillus casei, UniProt P00469); test: Inhibition of amethopterin-resistant Lactobacillus casei thymidylate synthetase-catalyzed 5-BrdUMP dehalogenation by absorbance analysis in absence of CH2-H4-folate; parameters: species or system Lacticaseibacillus casei; settings: read-out: Ki(app)
T1 sequence (P00469 whole entry): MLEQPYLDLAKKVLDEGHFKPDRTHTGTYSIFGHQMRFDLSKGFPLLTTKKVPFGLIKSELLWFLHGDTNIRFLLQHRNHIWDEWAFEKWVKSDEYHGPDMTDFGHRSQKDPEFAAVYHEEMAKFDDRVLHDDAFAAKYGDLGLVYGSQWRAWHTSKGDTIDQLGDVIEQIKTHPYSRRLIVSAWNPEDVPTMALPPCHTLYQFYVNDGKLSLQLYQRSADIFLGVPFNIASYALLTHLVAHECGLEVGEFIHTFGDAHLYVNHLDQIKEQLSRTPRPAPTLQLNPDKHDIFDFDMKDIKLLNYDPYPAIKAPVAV

Thymidylate synthase [2] = biological target: T1, Thymidylate synthase; test: Inhibition of amethopterin-resistant Lactobacillus casei thymidylate synthetase-catalyzed dTMP formation using dUMP as substrate by spectrophotometric analysis in presence of CH2-H4-folate; parameters: species or system Lacticaseibacillus casei; settings: read-out: Ki(app)
[3] = biological target: T2, Thymidylate synthase (Lactobacillus casei) (UniProt P00469); test: Activity at amethopterin-resistant Lactobacillus casei thymidylate synthetase assessed as rate of dTMP formation by absorbance analysis in presence of CH2-H4-folate; settings: Lacticaseibacillus casei
T2 sequence (whole entry): T1 sequence (P00469 whole entry)

[4] = substrate: O=c1ccn([C@H]2C[C@H](O)[C@@H](COP(=O)(O)O)O2)c(=O)[nH]1; settings: Lacticaseibacillus casei
Description: Activity at amethopterin-resistant Lactobacillus casei thymidylate synthetase by spectrophotometric analysis in presence of CH2-H4-folate

[5] = substrate: O=c1[nH]c(=O)n([C@H]2C[C@H](O)[C@@H](COP(=O)(O)O)O2)cc1I; test: Activity at amethopterin-resistant Lactobacillus casei thymidylate synthetase by absorbance analysis; settings: Lacticaseibacillus casei
[6] = substrate: O=c1[nH]c(=O)n([C@H]2C[C@H](O)[C@@H](COP(=O)(O)O)O2)cc1Br; test: as above; settings: Lacticaseibacillus casei

Molecule: O=c1[nH]c(=O)n([C@H]2C[C@H](O)[C@@H](COP(=O)(O)O)O2)cc1Br
Ki (Thymidylate synthase [2]): 1.4 µM
Activity [3]: 3%

Molecule: O=c1ccn([C@H]2C[C@H](O)[C@@H](COP(=O)(O)O)O2)c(=O)[nH]1 [DEOXYURIDINE MONOPHOSPHATE]
Ki (Thymidylate synthase [1]): 2.26 µM

Molecule: O=c1[nH]c(=O)n([C@H]2C[C@H](O)[C@@H](COP(=O)(O)O)O2)cc1Cl
Ki (Thymidylate synthase [1]): 9.39 µM
Ki (Thymidylate synthase [2]): 0.19 µM

Molecule: O=Cc1cn([C@H]2C[C@H](O)[C@@H](COP(=O)(O)O)O2)c(=O)[nH]c1=O
Ki (Thymidylate synthase [2]): 0.017 µM

B1: Thymidylate synthase (Lactobacillus casei), P00469 (protein)
chain: T1 sequence (P00469 whole entry)
Km [4]: 5.2 µM
Km [5]: 1.44 µM
Km [6]: 5.7 µM

Further lines, results first:

Ki (Thymidylate synthase [1]): 8.69 µM
Ki (Thymidylate synthase [2]): 15.5 µM
Molecule: Cc1cn([C@H]2C[C@H](O)[C@@H](COP(=O)(O)O)O2)c(=O)[nH]c1=O [THYMIDINE MONOPHOSPHATE]

Ki (Thymidylate synthase [2]): 0.039 µM
Molecule: O=c1[nH]c(=O)n([C@H]2C[C@H](O)[C@@H](COP(=O)(O)O)O2)cc1C(F)(F)F

Ki (Thymidylate synthase [2]): 1.6 µM
Activity [3]: 2.5%
Molecule: O=c1[nH]c(=O)n([C@H]2C[C@H](O)[C@@H](COP(=O)(O)O)O2)cc1I
